# Activity calls are given as the source filed them. The rule behind the calls is not given here.
# How the values were obtained:
# [1] = Induction of singlet oxygen production in acetate buffer assessed as ABDA florescence quenching by spectrofluorimetry; type: functional
# [2] = Induction of singlet production in acetate buffer using chemiluminescent substrate by spectrofluorimetry; type: functional
# MCF7 [3] = assay: Cytotoxicity against human MCF7 cells assessed as reduction in cell viability at 0.1 uM incubated for 24 hrs by MTT assay; type: functional, cell-based
# [4] = Induction of singlet oxygen production in methanol assessed as ABDA florescence quenching in presence of potassium superoxide by spectrofluorimetry; type: functional
# [5] = Induction of singlet production in methanol in presence of potassium superoxide using chemiluminescent substrate incubated for 30 mins in liquid nitrogen temperature by spectrofluorimetry; type: functional
# [6] = Induction of singlet production in methanol in presence of potassium superoxide using chemiluminescent substrate by spectrofluorimetry; type: functional
# PC-3 [7] = assay: Cytotoxicity against human PC3 cells assessed as reduction in cell viability at >75 uM incubated for 24 hrs by MTT assay relative to control; type: functional
# [8] = Induction of singlet production in methanol in presence of potassium superoxide using chemiluminescent substrate incubated for 30 mins in N2-bubbling by spectrofluorimetry relative to control; type: functional
# MCF-10A = assay: Cytotoxicity against human MCF10A cells assessed as reduction in cell viability at 0.1 to 100 uM incubated for 24 hrs by MTT assay; type: cell-based
# PC-3 [9] = assay: Cytotoxicity against human PC3 cells assessed as reduction in cell viability at 0.1 to 100 uM incubated for 24 hrs by MTT assay; type: functional, cell-based
# MCF7 [10] = assay: Cytotoxicity against human MCF7 cells assessed as reduction in cell viability at 0.1 to 100 uM incubated for 24 hrs by MTT assay; type: functional, cell-based
# [11] = Induction of singlet oxygen production in methanol assessed as ABDA florescence quenching by spectrofluorimetry; type: functional
Compound,Activity [2],Activity [8],Activity (PC-3 [9]),Activity (MCF7 [10]),further results
CC(=O)Nc1cnc(Br)cn1,Active,,,,Activity [1]: Active
Cc1nc2c[nH]c(-c3ccc(Br)cc3)cn-2c1=O,,Active,,,Activity (MCF7 [3]): Active; Activity [4]: Active; Activity [5]: Active; Activity [6]: Active; Activity (PC-3 [7]): >50%; Activity (MCF-10A): Non-Toxic
CN(C)C(=N)NC(=N)N,,,Active,,
CC/C(=C(\c1ccccc1)c1ccc(OCCN(C)C)cc1)c1ccccc1,,,,Active,
O=c1c(Cc2ccc(O)cc2)nc2c(Cc3ccccc3)[nH]c(-c3ccc(O)cc3)cn1-2,Active,inactive,Active,inactive,Activity [11]: inactive

# — ChEMBL document CHEMBL4406844, “Single-molecule chemiluminescent photosensitizer for a self-activating and tumor-selective photodynamic therapy of cancer” (Eur J Med Chem, 2019)
